{"source": "patent US9322049B2", "about": "“Activation and activators of SirT6” (CORNELL UNIVERSITY, priority 2009, dated 2016)", "biological_target": "T1, SirT6 (Homo sapiens, UniProt Q8N6T7)", "T1 construct": "The protein expression and purification were the same as the full length SIRT6 as described above; made in house; host or cells: E. coli BL21 Codon-plus RIPL", "T1 sequence (Q8N6T7 whole entry)": "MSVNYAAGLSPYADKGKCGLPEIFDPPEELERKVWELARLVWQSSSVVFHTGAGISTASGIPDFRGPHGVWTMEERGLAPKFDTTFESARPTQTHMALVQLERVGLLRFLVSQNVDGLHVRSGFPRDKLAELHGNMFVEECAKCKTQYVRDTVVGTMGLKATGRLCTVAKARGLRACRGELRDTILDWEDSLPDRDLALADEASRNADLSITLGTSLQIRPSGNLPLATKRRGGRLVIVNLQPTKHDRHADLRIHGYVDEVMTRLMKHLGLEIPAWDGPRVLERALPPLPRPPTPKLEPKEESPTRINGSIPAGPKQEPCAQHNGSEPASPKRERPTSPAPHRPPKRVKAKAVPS", "test": "Separation of SIRT6-DNA complex on Ni-NTA resin and Kd of DNA by gel electrophoresis (Example 6)", "assay_type": "binding", "experimental": "The linearized DNA was incubated with SirT6 and Ni-NTA resin. The resin was washed as described in Materials and Methods, and the complex of SirT6-DNA was dissociated by 1 mM suramin. The parallel experiments were done in the presence of 500 uM H3 peptide. DNA bound to SirT6 was quantified and fit to Michaelis-Menten equation to get Kd of DNA binding to the enzyme. […] The single stranded DNA was incubated with SirT6 and Ni-NTA resin. The resin was washed and the complex of SirT6-ssDNA was dissociated by 1 mM suramin. The parallel experiments were done in the presence of 500 uM H3 peptide. […] The linearized DNA was incubated with SirT6 and Ni-NTA resin with or without H3 peptide. After washing, the resin was incubated with different concentration of surmain. The dissociated DNA was quantified by gel electrophoresis. […] After the resin was washed, DNA was dissociated with 1 mM suramin and quantified by gel electrophoresis. Lane 1, 150 ng circular pSTBlue (C-pSTBlue); Lane 2, 150 ng pSTBlue cut with BamHI (B-pSTBlue); Lane 3, 150 ng pSTBlue cut with EcoRV (E-pSTBlue); Lane 4, circular pSTBlue bound to SirT6; Lane 5, pSTBlue cut with BamHI bound to SirT6; Lane 6, pSTBlue cut with EcoRV bound to SirT6; Lane 7, circular pSTBlue bound to SirT6 in the presence of H3; Lane 8, pSTBlue cut with BamHI bound to SirT6 in the presence of H3; Lane 9, pSTBlue cut with EcoRV bound to SirT6 in the presence of H3; Lane 10, DNA ladder.\n25% slurry of Ni-NTA resin was incubated with 5 μM SIRT6 and 500 μM H3 peptide for 1 hour at room temperature, in addition with different concentration of pSTBlue which was linearized with BamHI or different concentration of single stranded DNA, and/or 500 μM H3 peptide. After incubation, the resin was spun at 4,000 rpm for 1 minute, and was washed with 10 fold of resin volume with 10 mM imidazole, 100 mM phosphate buffer, pH 7.5, and then 10 fold volume of resin volume with 20 mM imidazole, 10 mM phosphate buffer, pH 7.5. The SIRT6-DNA complex was separated from the resin by adding 250 mM imidazole, 100 mM phosphate buffer, pH 7.5. […] The DNA bound to SIRT6 was then quantified by DNA gel electrophoresis: Linearized pSTBlue was quantified by 0.8% agarose gel electrophoresis using Tris-acetate acid buffer (1×TAE) run at room temperature; single stranded DNA was quantified by 6% acrylamide gel using Tris-boric acid buffer (1×TBE) run at room temperature. […]\nIn order to test if SIRT6 distinguished different DNA in the binding, pSTBlue was cut with different enzymes and purified by […]™ III kit (MP Biomedicals, LLC). […] DNA was then dissociated from SIRT6 by adding suramin to a final concentration of 1 mM and quantified by 0.8% agarose gel electrophoresis.", "key": {"[1]": {"details": "in the presence of 500 uM H3 peptide"}}, "data": [{"substance": "ssDNA: ssDNA 5′ GGGGATCCATGAAGATGAGCTTTGCGTTGACT 3′ (SEQ ID NO: 9), Integrated DNA Technologies (DNA, backbone and methylation of C not given here)", "values": [{"measurement": "Kd of DNA binding to SirT6", "setting": "in the absence of H3", "result": 195.5, "unit": "ng/µL"}, {"measurement": "Vmax of DNA bound to SirT6", "setting": "in the absence of H3", "result": 151.7, "unit": "ng/µL"}, {"measurement": "Kd of DNA binding to SirT6", "setting": "[1]", "result": 238.8, "unit": "ng/µL"}, {"measurement": "Vmax of DNA bound to SirT6", "setting": "[1]", "result": 333.5, "unit": "ng/µL"}]}]}
